# ChEMBL document CHEMBL4477225, “Development of a cell viability assay to assess drug metabolite structure-toxicity relationships” (Bioorg Med Chem Lett, 2016)
# What was measured:
# Type in all cases: ADME, cell-based
# Details in all cases: recombinant enzyme
# [1] = target: T1, Cytochrome P450 3A4 (Homo sapiens, UniProt P08684); test: Drug activation in human Hep3B cells assessed as human CYP3A4-mediated drug metabolism-induced cytotoxicity measured as decrease in cell viability at 6.5 uM pre-incubated with BSO for 18 hrs followed by incubation with compound for 3 hrs in presence of NADPH measured after 24 hrs in absence of compound, CYP3A4 and NADPH by cell titer-glo luminescence assay relative to BSO alone
# T1 sequence (P08684 whole entry): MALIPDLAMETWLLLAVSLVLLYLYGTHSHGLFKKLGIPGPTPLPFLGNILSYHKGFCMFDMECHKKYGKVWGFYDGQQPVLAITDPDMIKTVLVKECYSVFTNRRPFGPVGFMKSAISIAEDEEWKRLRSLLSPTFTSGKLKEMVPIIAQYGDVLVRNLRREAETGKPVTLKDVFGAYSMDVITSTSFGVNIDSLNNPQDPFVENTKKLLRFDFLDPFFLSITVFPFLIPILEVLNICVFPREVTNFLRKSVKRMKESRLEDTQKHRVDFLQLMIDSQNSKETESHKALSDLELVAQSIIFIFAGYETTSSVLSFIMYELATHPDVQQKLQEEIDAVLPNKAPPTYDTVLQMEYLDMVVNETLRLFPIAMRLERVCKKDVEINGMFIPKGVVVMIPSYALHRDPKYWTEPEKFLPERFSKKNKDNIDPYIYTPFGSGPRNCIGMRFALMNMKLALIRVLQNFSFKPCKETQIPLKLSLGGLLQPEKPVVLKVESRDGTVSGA
# [2] = target: T2, Cytochrome P450 2C9 (Homo sapiens, UniProt P11712); test: Drug activation in human Hep3B cells assessed as human CYP2C9-mediated drug metabolism-induced cytotoxicity measured as decrease in cell viability at 28.5 uM pre-incubated with BSO for 18 hrs followed by incubation with compound for 3 hrs in presence of NADPH measured after 24 hrs in absence of compound, CYP3A4 and NADPH by cell titer-glo luminescence assay relative to BSO alone
# T2 sequence (P11712 whole entry): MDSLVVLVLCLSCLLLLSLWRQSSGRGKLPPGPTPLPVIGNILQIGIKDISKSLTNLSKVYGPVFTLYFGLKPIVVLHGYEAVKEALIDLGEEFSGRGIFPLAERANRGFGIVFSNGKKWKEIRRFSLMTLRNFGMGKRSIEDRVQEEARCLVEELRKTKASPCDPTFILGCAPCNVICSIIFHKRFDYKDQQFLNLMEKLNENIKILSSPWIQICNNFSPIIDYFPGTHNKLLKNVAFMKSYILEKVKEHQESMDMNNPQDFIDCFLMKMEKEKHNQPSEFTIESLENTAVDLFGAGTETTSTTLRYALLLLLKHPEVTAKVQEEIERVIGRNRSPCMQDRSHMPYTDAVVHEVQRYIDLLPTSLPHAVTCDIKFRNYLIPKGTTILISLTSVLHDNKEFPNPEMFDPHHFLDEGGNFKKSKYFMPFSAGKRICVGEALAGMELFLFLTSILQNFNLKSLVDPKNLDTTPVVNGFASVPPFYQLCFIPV
# [3] = target: T3, Cytochrome P450 2D6 (Homo sapiens, UniProt P10635); test: Drug activation in human Hep3B cells assessed as human CYP2D6-mediated drug metabolism-induced cytotoxicity measured as decrease in cell viability at 6.8 uM pre-incubated with BSO for 18 hrs followed by incubation with compound for 3 hrs in presence of NADPH measured after 24 hrs in absence of compound, CYP3A4 and NADPH by cell titer-glo luminescence assay relative to BSO alone
# T3 sequence (P10635 whole entry): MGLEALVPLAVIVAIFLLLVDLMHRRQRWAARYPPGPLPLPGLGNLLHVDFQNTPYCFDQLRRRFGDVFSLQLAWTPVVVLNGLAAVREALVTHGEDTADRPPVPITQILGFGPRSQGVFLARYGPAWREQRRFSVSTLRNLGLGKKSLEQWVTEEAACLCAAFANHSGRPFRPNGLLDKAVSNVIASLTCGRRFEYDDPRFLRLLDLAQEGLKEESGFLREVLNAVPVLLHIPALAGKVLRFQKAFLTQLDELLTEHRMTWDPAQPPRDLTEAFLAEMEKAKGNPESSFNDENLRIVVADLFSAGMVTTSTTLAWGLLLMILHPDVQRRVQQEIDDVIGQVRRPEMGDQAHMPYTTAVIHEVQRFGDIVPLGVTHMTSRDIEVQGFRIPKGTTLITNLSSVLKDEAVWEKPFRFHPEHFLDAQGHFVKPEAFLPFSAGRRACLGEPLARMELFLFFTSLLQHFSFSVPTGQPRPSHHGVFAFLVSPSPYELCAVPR
# [4] = target: T2, Cytochrome P450 2C9; test: Drug activation in human Hep3B cells assessed as human CYP2C9-mediated drug metabolism-induced cytotoxicity measured as decrease in cell viability at 7.6 uM pre-incubated with BSO for 18 hrs followed by incubation with compound for 3 hrs in presence of NADPH measured after 24 hrs in absence of compound, CYP3A4 and NADPH by cell titer-glo luminescence assay relative to BSO alone
# [5] = target: T3, Cytochrome P450 2D6; test: Drug activation in human Hep3B cells assessed as human CYP2D6-mediated drug metabolism-induced cytotoxicity measured as decrease in cell viability at 12.8 uM pre-incubated with BSO for 18 hrs followed by incubation with compound for 3 hrs in presence of NADPH measured after 24 hrs in absence of compound, CYP3A4 and NADPH by cell titer-glo luminescence assay relative to BSO alone
# [6] = target: T1, Cytochrome P450 3A4; test: Drug activation in human Hep3B cells assessed as human CYP3A4-mediated drug metabolism-induced cytotoxicity measured as decrease in cell viability at 9.6 uM pre-incubated with BSO for 18 hrs followed by incubation with compound for 3 hrs in presence of NADPH measured after 24 hrs in absence of compound, CYP3A4 and NADPH by cell titer-glo luminescence assay relative to BSO alone
# [7] = target: T1, Cytochrome P450 3A4; test: Drug activation in human Hep3B cells assessed as human CYP3A4-mediated drug metabolism-induced cytotoxicity measured as decrease in cell viability at 0.3 uM pre-incubated with BSO for 18 hrs followed by incubation with compound for 3 hrs in presence of NADPH measured after 24 hrs in absence of compound, CYP3A4 and NADPH by cell titer-glo luminescence assay relative to BSO alone
# [8] = target: T2, Cytochrome P450 2C9; test: Drug activation in human Hep3B cells assessed as human CYP2C9-mediated drug metabolism-induced cytotoxicity measured as decrease in cell viability at 2.8 uM pre-incubated with BSO for 18 hrs followed by incubation with compound for 3 hrs in presence of NADPH measured after 24 hrs in absence of compound, CYP3A4 and NADPH by cell titer-glo luminescence assay relative to BSO alone
# [9] = target: T3, Cytochrome P450 2D6; test: Drug activation in human Hep3B cells assessed as human CYP2D6-mediated drug metabolism-induced cytotoxicity measured as decrease in cell viability at 3.4 uM pre-incubated with BSO for 18 hrs followed by incubation with compound for 3 hrs in presence of NADPH measured after 24 hrs in absence of compound, CYP3A4 and NADPH by cell titer-glo luminescence assay relative to BSO alone
# [10] = target: T1, Cytochrome P450 3A4; test: Drug activation in human Hep3B cells assessed as human CYP3A4-mediated drug metabolism-induced cytotoxicity measured as decrease in cell viability at 2.2 uM pre-incubated with BSO for 18 hrs followed by incubation with compound for 3 hrs in presence of NADPH measured after 24 hrs in absence of compound, CYP3A4 and NADPH by cell titer-glo luminescence assay relative to BSO alone
# [11] = target: T3, Cytochrome P450 2D6; test: Drug activation in human Hep3B cells assessed as human CYP2D6-mediated drug metabolism-induced cytotoxicity measured as decrease in cell viability at 3 uM pre-incubated with BSO for 18 hrs followed by incubation with compound for 3 hrs in presence of NADPH measured after 24 hrs in absence of compound, CYP3A4 and NADPH by cell titer-glo luminescence assay relative to BSO alone
# [12] = target: T2, Cytochrome P450 2C9; test: Drug activation in human Hep3B cells assessed as human CYP2C9-mediated drug metabolism-induced cytotoxicity measured as decrease in cell viability at 25.3 uM pre-incubated with BSO for 18 hrs followed by incubation with compound for 3 hrs in presence of NADPH measured after 24 hrs in absence of compound, CYP3A4 and NADPH by cell titer-glo luminescence assay relative to BSO alone
# [13] = target: T1, Cytochrome P450 3A4; test: Drug activation in human Hep3B cells assessed as human CYP3A4-mediated drug metabolism-induced cytotoxicity measured as decrease in cell viability at 154.5 uM pre-incubated with BSO for 18 hrs followed by incubation with compound for 3 hrs in presence of NADPH measured after 24 hrs in absence of compound, CYP3A4 and NADPH by cell titer-glo luminescence assay relative to BSO alone
# [14] = target: T2, Cytochrome P450 2C9; test: Drug activation in human Hep3B cells assessed as human CYP2C9-mediated drug metabolism-induced cytotoxicity measured as decrease in cell viability at 150 uM pre-incubated with BSO for 18 hrs followed by incubation with compound for 3 hrs in presence of NADPH measured after 24 hrs in absence of compound, CYP3A4 and NADPH by cell titer-glo luminescence assay relative to BSO alone
# [15] = target: T3, Cytochrome P450 2D6; test: Drug activation in human Hep3B cells assessed as human CYP2D6-mediated drug metabolism-induced cytotoxicity measured as decrease in cell viability at 188.9 uM pre-incubated with BSO for 18 hrs followed by incubation with compound for 3 hrs in presence of NADPH measured after 24 hrs in absence of compound, CYP3A4 and NADPH by cell titer-glo luminescence assay relative to BSO alone
compound,measurement,setting,value
CC1=C(CC(=O)O)c2cc(F)ccc2/C1=C\c1ccc([S+](C)[O-])cc1 (stereo not given),fold change (FC),[1],6.9
same,fold change (FC),[2],1.6
same,fold change (FC),[3],6.7
CCC[C@@]1(CCc2ccccc2)CC(O)=C([C@H](CC)c2cccc(NS(=O)(=O)c3ccc(C(F)(F)F)cn3)c2)C(=O)O1,fold change (FC),[4],1.6
same,fold change (FC),[5],1
same,fold change (FC),[6],1.3
CC(CCc1ccc(O)cc1)NCCc1ccc(O)c(O)c1 (stereo not given) [DOBUTAMINE],fold change (FC),[7],1023.9
same,fold change (FC),[8],108.1
same,fold change (FC),[9],89.2
CC(C)NCC(O)c1ccc(O)c(O)c1 (stereo not given) [ISOPROTERENOL],fold change (FC),[10],135.8
same,fold change (FC),[11],100.1
same,fold change (FC),[12],11.8
CS(=O)(=O)CCNCc1ccc(-c2ccc3ncnc(Nc4ccc(OCc5cccc(F)c5)c(Cl)c4)c3c2)o1 [LAPATINIB],fold change (FC),[13],0.3
same,fold change (FC),[14],0.3
same,fold change (FC),[15],0.2
